Results published in PMC3679074, “Ligand Binding and Signaling of Dendritic Cell Immunoreceptor (DCIR) Is Modulated by the Glycosylation of the Carbohydrate Recognition Domain” (PLoS ONE, 2013).
Substitutions are numbered along the chain they refer to.

Experiments:
DCIR-Fc [1] = target: T1, DCIR-Fc (Homo sapiens, UniProt Q9UMR7); assay: ELISA, biotinylated neoglycoconjugate on immobilized Fc protein; assay type: binding
T1 construct: gene CLEC4A; extracellular domain fused at C terminus to human IgG1 Fc (tag); produced in CHO or CHO Lec8 cells, protein A purified; 'residues 208-689' [sic]
T1 sequence (Q9UMR7 70-230): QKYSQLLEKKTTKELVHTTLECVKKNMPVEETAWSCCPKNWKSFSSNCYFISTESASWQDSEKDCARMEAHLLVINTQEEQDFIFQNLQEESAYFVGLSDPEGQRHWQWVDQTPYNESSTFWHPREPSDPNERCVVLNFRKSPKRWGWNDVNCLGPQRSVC

DCIR-Fc [2] = target: T2, DCIR-Fc (Homo sapiens, UniProt Q9UMR7, N185Q); assay: ELISA, soluble Fc protein on coated neoglycoconjugate; assay type: binding; conditions: 50 µg/ml Fc protein, room temperature; multivalent PAA conjugate; mutant lacks CRD N-glycan
T2 construct: gene CLEC4A; extracellular domain fused at C terminus to human IgG1 Fc (tag); produced in CHO or CHO Lec8 cells, protein A purified; 'residues 208-689' [sic]
T2 sequence (Q9UMR7 70-230 N185Q): T1 sequence (Q9UMR7 70-230) with N116Q

Row | SMILES | ELISA, biotinylated neoglycoconjugate on immobilized Fc protein (DCIR-Fc [1]; pH 7.4, Ca2+/Mg2+, room temperature, labelled compound (multivalent biotinylated PAA conjugate), EGTA-sensitive) | ELISA, soluble Fc protein on coated neoglycoconjugate (DCIR-Fc [2]) | ELISA, biotinylated neoglycoconjugate on immobilized Fc protein (DCIR-Fc [1]; labelled compound (multivalent biotinylated PAA conjugate, 5 µg/ml), EGTA control subtracted)
1 | CC(=O)N[C@H]1C(O)O[C@H](CO)[C@@H](O[C@@H]2O[C@@H](C)[C@@H](O)[C@@H](O)[C@@H]2O)[C@@H]1O[C@@H]1O[C@H](CO)[C@H](O)[C@H](O)[C@H]1O[C@@H]1O[C@@H](C)[C@@H](O)[C@@H](O)[C@@H]1O (stereo partly drawn) [Lewis^b] | We observed CLR-specific binding of Man3 and Lewis^b to immobilized DCIR-Fc | strongly interacted with immobilized Lewis^b and Man3 | 
2 | CC(=O)N[C@H]1C(O)O[C@H](CO)[C@@H](O[C@@H]2O[C@@H](C)[C@@H](O)[C@@H](O)[C@@H]2O)[C@@H]1O[C@@H]1O[C@H](CO)[C@H](O)[C@H](OS(=O)(=O)O)[C@H]1O (stereo partly drawn) [sulfo-Lewis^a] |  |  | immobilized glycosylated DCIR-Fc could interact with sulfo-Lewis^a
